Assay results: BigSolDB 2.1

COc1cc2c(cc1OC)C(=O)C(CC1CCN(Cc3ccccc3)CC1)C2.Cl (stereo not drawn)
solubility (mole fraction)
Details	in DMF	in ethanol	in methanol	in n-propanol
278.15 K	0.00119	0.000291	0.00167	0.000112
283.15 K	0.00135	0.000379	0.00222	0.000153
288.15 K	0.00152	0.000484	0.00287	0.000214
293.15 K	0.00173	0.000609	0.00375	0.000301
298.15 K	0.00196	0.000768	0.00483	0.000404
303.15 K	0.00222	0.000951	0.00636	0.000543
308.15 K	0.00251	0.00118	0.00803	0.000743
313.15 K	0.00286	0.00145	0.0105	0.00102
318.15 K	0.00325	0.00177	0.0133	0.00133
323.15 K	0.00368	0.00215	0.017	0.0018
328.15 K	0.00418	0.00259	0.0216	0.00241
333.15 K	0.00476	0.00308	0.0277	0.00321
